Source: paper PMC7693160 (Pharmaceutics, 2020)
Values joined by “and” are separate entries in the source; they are usually repeats but may differ in a detail not shown here. Equal values may be shown once. Read-outs that look alike come from different tables or passages of the source. Marks after values point to notes of the source that are not given here.

Assays:
[1] = Model-based analysis of in vitro dissolution data (DLM, SIVA); format: physicochemical
Text: The dissolution rate of spherical particles under sink and non-sink conditions within SIVA is described by an extension of the diffusion layer model (DLM) developed by Wang and Flanagan (Equation (3)). (3) DRt=-[…] where DRt is the dissolution rate at time t, N is the number of particles in a given particle size bin, and SDLM is a lumped correction scalar without regard to the mechanistic origin of the correction to the DLM. The SDLM estimates obtained with SIVA can be applied to the Simcyp PBPK simulator to reflect differences between media or formulations by simulating the respective in vivo dissolution; Deff is the effective diffusion coefficient; […] represent the thickness of the hydrodynamic boundary layer and the particle radius at time t, respectively; Ssurfacet corresponds to the saturation solubility at the particle surface (which may be different to the bulk fluid solubility, as discussed below); and Cbulkt is the concentration of dissolved drug in bulk solution at time t. The […] calculated by the fluid dynamics sub-model, which enables the hydrodynamic conditions to be described according to local conditions and stirring rate. Fluid dynamics-based […] recommended option for describing the hydrodynamics, as it permits a more rational translation of estimated parameters such as the SDLM to in vivo conditions, in which the hydrodynamics are usually quite different to in vitro experiments. […] Since the in vitro dissolution media have a somewhat […] buffer capacity than the intestinal fluids, the self-buffering effect at the solid surface can be underestimated. For this reason, the surface pH was calculated and directly input into SIVA. The calculation of the surface pH is based on the model first proposed by Mooney et al., which assumes that dissolution is the result of both chemical reaction between the conjugate base of the buffer species and the hydrogen cations released from the dissolving drug (in this case FLU) at the liquid-solid interface and the diffusion of the dissolved particles to the bulk. This model is very similar to the quasi-equilibrium model published by Ozturk et al., a derivative of which is implemented in SIVA as the default option for surface pH calculations. By fitting the DLM model to the observed dissolution data, we obtained SDLM estimates for each dissolution and two-stage test. In the case of two-stage testing, different SDLM values were obtained for the gastric and intestinal compartments, accounting for the changes in the respective in vitro conditions. Under fasted state intestinal conditions, FLU is freely soluble and therefore dissolution is not expected to be solubility limited. In that case, disintegration of the solid dosage form in the intestinal dissolution medium might be the rate-limiting step for the in vitro dissolution rate, especially in single dissolution experiments where the dosage form is directly exposed to the intestinal medium without any pre-treatment in a gastric medium. […] For the two-stage test experiments, the option was kept deactivated since disintegration in the stomach is already accounted for by the dissolution in the gastric medium. Both gastric and intestinal phases of the two-stage results were modelled simultaneously using the serial dilution model, which can account for more than one in vitro dissolution condition in the same experiment. Estimation of the relevant parameters was performed using the Nelder-Mead algorithm and equal weighting was applied. […]

[2] = system: tooth pulp-evoked potentials (TPEP) amplitude and subjective pain intensity rating; details: cited from earlier work; for Rmax obs: 100 mg tablet; for TRmax obs: median
CYP2C9 2*/2* = details: Recombinant CYP (fu,mic = 1), cited from earlier work
[3] = cited from earlier work
[4] = 1st value, ref Lee et al. (2003) as printed
[5] = 2nd value, ref Lee et al. (2015) as printed
[6] = po sol s.d. 40 mg, CYP2C9 1*/1*
[7] = po sol s.d. 40 mg, CYP2C9 1*/3*
[8] = po tab (Froben) s.d. 100 mg, ref 4
[9] = po tab (Froben) s.d. 100 mg, ref 38
[10] = po tab s.d. 50 mg, CYP2C9 1*/1*
[11] = po tab s.d. 50 mg, CYP2C9 1*/1*, median
[12] = po tab s.d. 50 mg, CYP2C9 1*/2*
[13] = po tab s.d. 50 mg, CYP2C9 1*/3*
[14] = po tab s.d. 50 mg, CYP2C9 1*/3*, median
[15] = po tab s.d. 50 mg, CYP2C9 3*/3*, individual values (n = 2)

In the case of `CC(C(=O)O)c1ccc(-c2ccccc2)c(F)c1` (centres unmarked) [flurbiprofen], the “SDLM (95% CI)” value ([1]; FaSSGF Level III) is reported as 0.0218 (0.0161–0.0274), the “SDLM (95% CI)” value ([1]; FaSSIF V3 Level I, listed as API) is reported as 0.00185 and the “SDLM (95% CI)” value ([1]; FaSSIF V3 Level I, listed as API Powder) is reported as 0.00185 (0.001–0.00312). The “SDLM (95% CI)” value ([1]; FaSSIF V3 Level II) was 0.0965 (0.0544–0.139), the “SDLM (95% CI)” value ([1]; Ph. Eur. Phosphate Buffer) was 0.00542 (0.00468–0.00617) and the Rmax obs ([2]; Pain intensity reduction) was 53.1%. For the same compound, the AUCE obs ([2]; Pain intensity reduction) was 224.2 %·h, the TRmax obs ([2]; Pain intensity reduction) was 4.00 h and the Rmax obs ([2]; TPEP amplitude reduction) was 47.3%. The AUCE obs ([2]; TPEP amplitude reduction) was 224.2 %·h, the TRmax obs ([2]; TPEP amplitude reduction) was 4.00 h and the “CYP2C9 2*/2*-Vmax” value (CYP2C9 2*/2*) was 10.04 pmol/min/pmol CYP. For the same compound, the Km (CYP2C9 2*/2*; read-out: CYP2C9 2*/2*-Km) was 10.4 µM, the “observed decrease in CYP2C9 1*/3* clearance” value [3, 4] was “about 37%” and the “observed increase in AUC, CYP2C9 1*/3*” value [3, 4] was 1.62 fold. For the same compound, the “observed decrease in CYP2C9 1*/3* clearance” value [3, 5] was ~44%, the “observed increase in AUC, CYP2C9 1*/3*” value [3, 5] was 1.74 fold and the “observed decrease in clearance” value ([3]; CYP2C9 1*/2* individuals) was “about 27%”. For the same compound, the “observed decrease in clearance” value ([3]; CYP2C9 1*/3* individuals) was ~40%, the Fox ([3]; PBPK input) was 0.71 and the Clrenal [3] was 0.066 L/h. The “steady-state volume of distribution (Vss)” value [3] was “around 0.1 L/kg”, the fmCYP2C9 ([3]; contribution to overall metabolic clearance) was 0.71 and the CYP2C9 metabolic contribution ([3]; human, in vivo) was “at least 71%”. For the same compound, the absolute bioavailability ([3]; human, in vivo) was ~ 95%, the “eliminated through metabolic oxidation to 4-hydroxy FLU” value ([3]; human, in vivo) was > 71 % of the dose and the AUCinf obs ([3]; iv s.d. 50 mg) was 35.2 mg·h/L. For the same compound, the fmCYP2C9 ([3]; metabolism by polymorphic CYP2C9) was ≥ 0.71, the “dose excreted into urine as acyl glucuronide of (R)-FLU” value ([3]; oral racemic FLU) was 8.4% and the “dose excreted into urine as acyl glucuronide of (S)-FLU” value ([3]; oral racemic FLU) was 7.3%. For the same compound, the AUCinf obs ([3]; po orod s.d. 150 mg) was 129.8 mg·h/L, the Cmax obs ([3]; po orod s.d. 150 mg) was 16.8 mg/L and the AUCinf obs [3, 6] was 29.3 mg·h/L. For the same compound, the CL/F obs [3, 6] was 1.39 L/h, the Cmax obs [3, 6] was 5.54 mg/L and the AUCinf obs [3, 7] was 47.6 mg·h/L. The CL/F obs [3, 7] was 0.88 L/h, the Cmax obs [3, 7] was 6.93 mg/L and the AUCinf obs ([3]; po sol s.d. 67.9 mg) was 55.1 mg·h/L. The Cmax obs ([3]; po sol s.d. 67.9 mg) was 10.8 mg/L, the AUCinf obs ([3]; po sol s.d. 100 mg) was 82.7 mg·h/L and the CL/F obs ([3]; po sol s.d. 100 mg) was 1.28 L/h. The Cmax obs ([3]; po sol s.d. 100 mg) was 14.2 mg/L, the AUCinf obs ([3]; po tab (Ansaid) s.d. 100 mg) was 80.5 mg·h/L and the Cmax obs ([3]; po tab (Ansaid) s.d. 100 mg) was 12.8 mg/L. For the same compound, the AUCinf obs ([3]; po tab (Ansaid) s.d. 200 mg) was 161.3 mg·h/L, the CL/F obs ([3]; po tab (Ansaid) s.d. 200 mg) was 1.32 L/h and the Cmax obs ([3]; po tab (Ansaid) s.d. 200 mg) was 21.4 mg/L. For the same compound, the AUCinf obs ([3]; po tab (Ansaid) s.d. 300 mg) was 233.9 mg·h/L, the CL/F obs ([3]; po tab (Ansaid) s.d. 300 mg) was 1.36 L/h and the Cmax obs ([3]; po tab (Ansaid) s.d. 300 mg) was 29.5 mg/L. For the same compound, the AUCinf obs [3, 8] was 87.8 mg·h/L, the CL/F obs [3, 8] was 1.27 L/h and the Cmax obs [3, 8] was 13.2 mg/L. The AUCinf obs [3, 9] was 82.3 mg·h/L, the Cmax obs [3, 9] was 13.3 mg/L and the AUCinf obs [3, 10] was 29.4 mg·h/L. For the same compound, the CL/F obs [3, 10] was 1.77 L/h, the Cmax obs [3, 10] was 5.38 mg/L and the AUCinf obs [3, 11] was 30.8^a mg/L·h. The CL/F obs [3, 11] was 1.6 ^a L/h, the Cmax obs [3, 11] was 6.1 ^a mg/L and the AUCinf obs [3, 12] was 40.7 mg·h/L. The CL/F obs [3, 12] was 1.30 L/h, the Cmax obs [3, 12] was 4.55 mg/L and the AUCinf obs [3, 13] was 51.1 mg·h/L. The CL/F obs [3, 13] was 1.00 L/h, the Cmax obs [3, 13] was 5.42 mg/L and the AUCinf obs [3, 14] was 53.7 ^a mg/L·h. The CL/F obs [3, 14] was 0.9 ^a L/h, the Cmax obs [3, 14] was 8.9 ^a mg/L and the AUCinf obs [3, 15] was 85.8 mg·h/L and 119 mg·h/L. The CL/F obs [3, 15] was 0.6 L/h and 0.4 L/h, the Cmax obs [3, 15] was 8 mg/L and 9.4 mg/L and the AUCinf obs ([3]; po tab s.d. 100 mg) was 67.7 mg·h/L. The CL/F obs ([3]; po tab s.d. 100 mg) was 1.52 L/h, the Cmax obs ([3]; po tab s.d. 100 mg) was 12.9 mg/L and the AUCinf obs ([3]; po tab s.d. 150 mg) was 124.3 mg·h/L. For the same compound, the Cmax obs ([3]; po tab s.d. 150 mg) was 15.2 mg/L and the “fraction absorbed (fa)” value ([3]; small intestine) was “greater than 95%”.
